This note sets out measurements from patent publication US20040002526A1, “Phospholipase D inhibitors and uses thereof” (Cell Therapeutics, Inc., priority 2002, published 2004).

Structures are written as SMILES.

One experiment has as its target T1, PLD (phospholipase D).
T1 construct: fused on or other part: N-terminal polyhistidine tag (pFastBac HTc) on either enzyme
Nature of the experiment: In vitro assay of PLD activity ([3H]-choline release from labelled PC). The class given is biochemical, human. The following applies: Table 2, bicyclic thiazolidinones of Formula II; PLD isoform not stated; read-out: IC50. The procedure: Recombinant PLD1 and PLD2—Human PLD1 and PLD2 were isolated from Sf9 insect cells that had been infected with recombinant baculovirus vector, pFastBac™HTc vector (Life Technologies, Gaithersburg, Md.), containing PLD1 or PLD2 cDNAs.
PLD1 activity was assayed by measuring the generation of [^3H]-choline from [choline-methyl^3H](16:0, 16:0)PC.
The assay procedure for PLD2 was similar to that for PLD1, with the exception that arf1, PKC-α, and GTPγS were omitted from the reaction mixture. After addition of enzymes, the reactions were incubated for 1 hour at room temperature. Twenty microliters of 12% trichloroacetic acid (TCA) then were added to each sample, to stop the reaction and to precipitate the unreacted [choline-methyl^3H](16:0, 16:0)PC. Thereafter, the samples were passed through 0.65 μm Millipore 96 well filter plates to removed the excess [choline-methyl^3H](16:0, 16:0)PC. For each sample the filtrate (50 μl), which contained the [^3H]-choline released by PLD cleavage of PC, was analyzed using a TopCount™ Liquid Scintillation Counter, a product of Packard (Meriden, Conn.).
One may read the IC50 as the concentration needed to halve the response being measured. Regarding `CCOC(=O)C1=C(C)N=c2s/c(=C\c3ccc(-c4cccc(C(=O)O)c4)o3)c(=O)n2C1c1ccccc1Cl` (centres unmarked) [Compound 52, 2-[5-(3-Carboxy-phenyl)-furan-2-ylmethylene]-5-(2-chloro-phenyl)-7-methyl-3-oxo-2,3-dihydro-5H-thiazolo[3,2-a]pyrimidine-6-carboxylic acid ethyl ester], the 50% inhibitory concentration (IC50) is 4 µM.

For `CCOC(=O)C1=C(C)N=c2s/c(=C\c3ccc(-c4cccc(C(=O)O)c4)o3)c(=O)n2C1c1ccc(N(C)C)cc1` (centres unmarked) [Compound 55, 2-[5-(3-Carboxy-phenyl)-furan-2-ylmethylene]-5-(4-dimethylamino-phenyl)-7-methyl-3-oxo-2,3-dihydro-5H-thiazolo[3,2-a]pyrimidine-6-carboxylic acid ethyl ester], the IC50 was determined as 0.7 µM. Same read-out and setting: in the case of `CCOC(=O)C1=C(C)N=c2s/c(=C/c3ccc(-c4ccc(Cl)c(C(=O)O)c4)o3)c(=O)n2C1c1ccccc1OC` (centres unmarked) [Compound 56, 2-[5-(3-Carboxy-4-chloro-phenyl)-furan-2-ylmethylene]-5-(2-methoxy-phenyl)-7-methyl-3-oxo-2,3-dihydro-5H-thiazolo[3,2-a]pyrimidine-6-carboxylic acid ethyl ester] it was 2.6 µM; in that of `CCOC(=O)C1=C(C)N=c2s/c(=C\c3ccc(-c4ccc(C(=O)O)cc4)o3)c(=O)n2C1c1c(OC)ccc2ccccc12` (centres unmarked) [Compound 57, 2-[5-(4-Carboxy-phenyl)-furan-2-ylmethylene]-5-(2-methoxy-naphthalen-1-yl)-7-methyl-3-oxo-2,3-dihydro-5H-thiazolo[3,2-a]pyrimidine-6-carboxylic acid ethyl ester], 3.7 µM.

Consider `CCOC(=O)C1=C(C)N=c2s/c(=C\c3ccc(-c4ccccc4C(=O)O)o3)c(=O)n2C1c1ccc(SC)cc1` (centres unmarked) [Compound 58, 2-[5-(2-Carboxy-phenyl)-furan-2-ylmethylene]-7-methyl-5-(4-methylsulfanyl-phenyl)-3-oxo-2,3-dihydro-5H-thiazolo[3,2-a]pyrimidine-6-carboxylic acid ethyl ester], for which the half-inhibitory concentration (IC50) was determined as 4 µM. Same read-out and setting: in the case of `CCOC(=O)C1=C(C)N=c2s/c(=C/c3ccc(-c4cccc(C(=O)O)c4)o3)c(=O)n2C1c1ccccc1OC` (centres unmarked) [Compound 59, 2-[5-(3-Carboxy-phenyl)-furan-2-ylmethylene]-5-(2-methoxy-phenyl)-7-methyl-3-oxo-2,3-dihydro-5H-thiazolo[3,2-a]pyrimidine-6-carboxylic acid ethyl ester] it was 4.1 µM.

Still in this experiment, the particulars now being: Table 3, tricyclic thiazolidinones of Formula II; PLD isoform not stated; read-out: IC50.
Regarding `Cc1cc2nc3s/c(=C\c4ccc(-c5ccc(O)c(C(=O)O)c5)o4)c(=O)n3c2cc1C` [Compound 60, 5-[5-(6,7-Dimethyl-3-oxo-benzo[4,5]imidazo[2,1-b]thiazol-2-ylidenemethyl)-furan-2-yl]-2-hydroxy-benzoic acid], the IC50 was 3.6 µM. The same measure, in the same setting: in the case of `Cc1cc2nc3s/c(=C/c4ccc(-c5cccc(C(=O)O)c5)o4)c(=O)n3c2cc1C` [Compound 61, 3-[5-(6,7-Dimethyl-3-oxo-benzo[4,5]imidazo[2,1-b]thiazol-2-ylidenemethyl)-furan-2-yl]-benzoic acid] it was 3.4 µM.
